Here are results for 7 compounds from US5061720A, “Substituted-4-thiazolidinone derivatives” (A. H. Robins Company, Inc., priority 1989, dated 1991).

This assay deals with T1, 5-lipoxygenase (Homo sapiens, UniProt P09917).
T1 construct: Polymorphonuclear leukocytes were obtained from whole human blood; endogenous in cells; host or cells: human polymorphonuclear leukocytes from whole blood, stimulated with A23187
T1 sequence (P09917 1-674): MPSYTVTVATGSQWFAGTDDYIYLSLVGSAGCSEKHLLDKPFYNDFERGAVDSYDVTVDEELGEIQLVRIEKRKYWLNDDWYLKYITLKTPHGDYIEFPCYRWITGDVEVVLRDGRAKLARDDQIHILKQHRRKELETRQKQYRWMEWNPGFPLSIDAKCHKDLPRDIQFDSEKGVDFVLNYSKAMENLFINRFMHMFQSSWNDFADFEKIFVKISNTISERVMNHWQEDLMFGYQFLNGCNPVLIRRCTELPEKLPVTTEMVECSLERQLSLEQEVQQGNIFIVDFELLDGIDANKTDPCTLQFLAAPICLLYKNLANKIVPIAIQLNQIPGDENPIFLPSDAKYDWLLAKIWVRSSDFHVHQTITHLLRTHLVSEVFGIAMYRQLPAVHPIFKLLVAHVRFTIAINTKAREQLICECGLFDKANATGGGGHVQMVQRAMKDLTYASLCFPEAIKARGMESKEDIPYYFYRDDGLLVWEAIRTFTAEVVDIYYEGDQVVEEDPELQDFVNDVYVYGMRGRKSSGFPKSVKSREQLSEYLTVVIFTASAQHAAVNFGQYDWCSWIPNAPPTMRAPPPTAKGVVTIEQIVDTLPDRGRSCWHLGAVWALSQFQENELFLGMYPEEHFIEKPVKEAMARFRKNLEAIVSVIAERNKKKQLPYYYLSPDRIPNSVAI
Briefly: 5-Lipoxygenase Assay (production of 5-HETE from arachidonic acid in polymorphonuclear leukocytes stimulated by A23187). The note with it: inhibition of production of 5-HETE, human PMN cells, calcium ionophore A23187, 37° C. The format is cell-based. As for the experimental part:
The production of 5-HETE from arachidonic acid in human polymorphonuclear leukocytes stimulated by the calcium ionophore A23187 (Calbiochemicals) was measured by reverse phase high pressure liquid chromatography. This procedure is a modification of the procedure of Sun and McGuire, PROSTAGLANDINS, 26, 211-221 (1983). Addition of substances to the test system that inhibit 5-lipoxygenases cause a decrease in the production of 5-HETE and is thus determined in comparison to reference and control articles also added to the reaction system.
Polymorphonuclear leukocytes were obtained from whole human blood by the procedure of Skoog and Beck, BLOOD, 11, 436-454 (1956). […] The tube is incubated for an additional 10 min at 37° C. and the incubations terminated by addition of 1.5 mL of acetone and cooling to 0° C. 13-Hydroxyoctadecatrienoic acid (13-HODT) (5 μL of 0.2 mM methanolic solution) is added for an internal reference standard. The tube is stored at -20° C. under argon for 4-18 hr. Centrifugation at 1000×g for 10 min causes protein precipitate to form a pellet. The acetone layer is evaporated under a stream of nitrogen and the resultant lipid residue containing the arachidonic acid metabolites and 13-HODT is dissolved in 0.5 mL of methanol and stored at -20° C. until analyzed by high-pressure liquid chromatography (HPLC).
For analysis, a 150-μL aliquot of the methanol solution is evaporated under a stream of argon. The residue is reconstituted with 100 μL of a 1:1 methanol-water mixture and sonified for 15-20 seconds and the mixture analyzed by HPLC (C18 reversed phase Econophere column, methanol:water:acetic acid 79:25:0.2 v/v/v used for elution). Test, reference, and control articles are evaluated in duplicate. The inhibition is reported as that concentration which will inhibit by 50% the production of 5-HETE.

The term IC50 denotes the concentration needed to halve the response being measured.

SMILES strings stand for the structures. Where only a bound is given, the exact number is not on record here.

`CCCC[C@@H]1S[C@H](c2cccc(Oc3ccccc3)c2)N(CCCCCC(=O)OCC)C1=O` (relative stereo) [Example 51]: the IC50 was approximately 15 µM.
The same measure for `CCCC[C@@H]1S[C@@H](c2cccc(Oc3ccccc3)c2)NC1=O` (relative stereo) [Example 83, 5-Butyl-2-(3-phenoxyphenyl)-4-thiazolidinone]: less than 10 µM; for `CCCCC1SC(c2cccc(Oc3ccccc3)c2)N(CCCCc2ccccc2)C1=O` (stereo not shown) [Example 1, 5-Butyl-2-(3-phenoxyphenyl)-3-(4-phenylbutyl)-4-thiazolidinone]: more than 100 µM.
In the case of `CC1SC(c2cccc(Oc3ccccc3)c2)N(CCCCc2ccccc2)C1=O` (stereo not shown) [Example 7, 5-Methyl-2-(3-phenoxyphenyl)-3-(4-phenylbutyl)-4-thiazolidinone], the IC50 is less than 20 µM.
As for `CCCCC1SC(c2cccc(C(=O)c3ccccc3)c2)N(CCCCc2ccccc2)C1=O` (stereo not shown) [Example 8, 2-(3-Benzoylphenyl)-5-butyl-3-(4-phenylbutyl)-4-thiazolidinone], the half-maximal inhibitory concentration (IC50) was approximately 100 µM.
The same measure for `CCCCC1SC(c2cccc(Oc3ccccc3)c2)N(CCc2ccccc2)C1=O` (stereo not shown) [Example 17, 5-Butyl-2-(3-phenoxyphenyl)-3-(2-phenylethyl)-4-thiazolidinone]: 10 µM.
The figure for `CCCCC1SC(c2cccc(Oc3ccccc3)c2)N(CCCCC(=O)O)C1=O` (stereo not shown) [Example 45, 5-Butyl-4-oxo-2-(3-phenoxyphenyl)-3-thiazolidinepentanoic acid] is approximately 15 µM.
